Reference: the supplement of paper PMC9663587

Columns and labels:
[1] = compound: Cc1nn(C)c(COc2ccc(N3CCN(S(=O)(=O)N(C)C)CC3)cc2)c1-c1cccc2c(CCCOc3cccc4ccccc34)c(C(=O)O)n(CCN3CCOCC3)c12
Ceritinib/LDK378 = compound: Cc1cc(Nc2ncc(Cl)c(Nc3ccccc3S(=O)(=O)C(C)C)n2)c(OC(C)C)cc1C1CCNCC1 [Ceritinib/LDK378]
LEE011/Ribociclib [2] = compound: T1, CN(C)C(=O)c1cc2cnc(Nc3ccc(N4CCNCC4)cn3)nc2n1C1CCCC1 [LEE011/Ribociclib]
Doxorubicin = compound: COc1cccc2c1C(=O)c1c(O)c3c(c(O)c1C2=O)C[C@@](O)(C(=O)CO)C[C@@H]3O[C@H]1C[C@H](N)[C@H](O)[C@H](C)O1 [Doxorubicin]
[3] = compound: CCc1cnn2c(NCc3ccc[n+]([O-])c3)cc(N3CCCC[C@H]3CCO)nc12
Pictilisib/GDC0941 = compound: CS(=O)(=O)N1CCN(Cc2cc3nc(-c4cccc5[nH]ncc45)nc(N4CCOCC4)c3s2)CC1 [Pictilisib/GDC0941]
BSJ-03-123 = compound: CC(=O)c1c(C)c2cnc(Nc3ccc(N4CCN(CCOCCOCCOCCNC(=O)COc5cccc6c5C(=O)N(C5CCC(=O)NC5=O)C6=O)CC4)cn3)nc2n(C2CCCC2)c1=O [BSJ-03-123]; test: increase in dead-cell fraction, 72 h; higher = more death;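 note: breast cancer cell lines in 384-well plates, stained with Hoechst plus LIVE/DEAD far red dye and imaged, cells above an LDR intensity threshold counted dead, Hoechst-negative corpses included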
[4] = compound: CCN1CCN(Cc2ccc(Nc3ncc(F)c(-c4cc(F)c5nc(C)n(C(C)C)c5c4)n3)nc2)CC1; test: as above
LEE011/Ribociclib [5] = compound: T1, LEE011/Ribociclib; test: as above
[6] = compound: CC(=O)c1c(C)c2cnc(Nc3ccc(N4CCNCC4)cn3)nc2n(C2CCCC2)c1=O; test: as above
Neratinib/HKI272 = compound: CCOc1cc2ncc(C#N)c(Nc3ccc(OCc4ccccn4)c(Cl)c3)c2cc1NC(=O)/C=C/CN(C)C [Neratinib/HKI272]; test: as above
THZ531 = compound: CN(C)C/C=C/C(=O)Nc1ccc(C(=O)N2CCC[C@@H](Nc3ncc(Cl)c(-c4c[nH]c5ccccc45)n3)C2)cc1 [THZ531]; test: as above
YKL-5-124 = compound: C=CC(=O)Nc1ccc(C(=O)Nc2[nH]nc3c2CN(C(=O)N[C@H](CN(C)C)c2ccccc2)C3(C)C)cc1 [YKL-5-124]; test: as above
[7] = compound: CCc1cnn2c(NCc3ccc[n+]([O-])c3)cc(N3CCCC[C@H]3CCO)nc12; test: as above
THZ1 = compound: CN(C)C/C=C/C(=O)Nc1ccc(C(=O)Nc2cccc(Nc3ncc(Cl)c(-c4c[nH]c5ccccc45)n3)c2)cc1 [THZ1]; test: as above
Flavopiridol = compound: CN1CC[C@H](c2c(O)cc(O)c3c(=O)cc(-c4ccccc4Cl)oc23)[C@H](O)C1 [Flavopiridol]; test: as above
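Throughout, for GR50, 72 h: breast cancer and non-malignant breast epithelial cell lines, Deep Dye Drop or Dye Drop imaging, nine half-log doses, GR normalized to time-zero plates and DMSO-only controls.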

## MDAMB231
[1]
  GR50, 72 h: > 10 µM
Ceritinib/LDK378
  GR50, 72 h: 0.866 µM
LEE011/Ribociclib [2]
  GR50, 72 h: 0.995 µM
Doxorubicin
  GR50, 72 h: 0.00504 µM
[3]
  GR50, 72 h: 0.0103 µM
Pictilisib/GDC0941
  GR50, 72 h: 5.32 µM
BSJ-03-123; 0.001 µM
  increase in dead-cell fraction: -0.0008
BSJ-03-123; 0.003162 µM
  increase in dead-cell fraction: -0.0016
BSJ-03-123; 0.01 µM
  increase in dead-cell fraction: 0.0034
BSJ-03-123; 0.03162 µM
  increase in dead-cell fraction: 0.0017
BSJ-03-123; 0.1 µM
  increase in dead-cell fraction: 0.0035
BSJ-03-123; 0.3162 µM
  increase in dead-cell fraction: 0.0024
BSJ-03-123; 1 µM
  increase in dead-cell fraction: 0.0009
BSJ-03-123; 3.162 µM
  increase in dead-cell fraction: 0.0031
BSJ-03-123; 10 µM
  increase in dead-cell fraction: 0.157
[4]; 0.001 µM
  increase in dead-cell fraction: 0.0075
[4]; 0.003162 µM
  increase in dead-cell fraction: 0.0028
[4]; 0.01 µM
  increase in dead-cell fraction: 0.0023
[4]; 0.03162 µM
  increase in dead-cell fraction: 0.0037
[4]; 0.1 µM
  increase in dead-cell fraction: 0.0398
[4]; 0.3162 µM
  increase in dead-cell fraction: 0.0474
[4]; 1 µM
  increase in dead-cell fraction: 0.12
[4]; 3.162 µM
  increase in dead-cell fraction: 0.366
[4]; 10 µM
  increase in dead-cell fraction: 0.68
LEE011/Ribociclib [5]; 0.001 µM
  increase in dead-cell fraction: -0.0007
LEE011/Ribociclib [5]; 0.003162 µM
  increase in dead-cell fraction: -0.0028
LEE011/Ribociclib [5]; 0.01 µM
  increase in dead-cell fraction: 0.0009
LEE011/Ribociclib [5]; 0.03162 µM
  increase in dead-cell fraction: -0.0021
LEE011/Ribociclib [5]; 0.1 µM
  increase in dead-cell fraction: 0.0045
LEE011/Ribociclib [5]; 0.3162 µM
  increase in dead-cell fraction: 0.005
LEE011/Ribociclib [5]; 1 µM
  increase in dead-cell fraction: 0.0045
LEE011/Ribociclib [5]; 3.162 µM
  increase in dead-cell fraction: 0.0025
LEE011/Ribociclib [5]; 10 µM
  increase in dead-cell fraction: 0.014
[6]; 0.0003162 µM
  increase in dead-cell fraction: -0.0007
[6]; 0.001 µM
  increase in dead-cell fraction: 0.0057
[6]; 0.003162 µM
  increase in dead-cell fraction: -0.0035
[6]; 0.01 µM
  increase in dead-cell fraction: -0.0069
[6]; 0.03162 µM
  increase in dead-cell fraction: -0.0054
[6]; 0.1 µM
  increase in dead-cell fraction: 0.0066
[6]; 0.3162 µM
  increase in dead-cell fraction: 0.0151
[6]; 1 µM
  increase in dead-cell fraction: 0.0334
[6]; 3.162 µM
  increase in dead-cell fraction: 0.0399
Neratinib/HKI272; 0.0003162 µM
  increase in dead-cell fraction: 0.0013
Neratinib/HKI272; 0.001 µM
  increase in dead-cell fraction: -0.0029
Neratinib/HKI272; 0.003162 µM
  increase in dead-cell fraction: 0.0044
Neratinib/HKI272; 0.01 µM
  increase in dead-cell fraction: 0.0008
Neratinib/HKI272; 0.03162 µM
  increase in dead-cell fraction: 0.0108
Neratinib/HKI272; 0.1 µM
  increase in dead-cell fraction: 0.0067
Neratinib/HKI272; 0.3162 µM
  increase in dead-cell fraction: 0.0175
Neratinib/HKI272; 1 µM
  increase in dead-cell fraction: 0.0509
Neratinib/HKI272; 3.162 µM
  increase in dead-cell fraction: 0.378
THZ531; 0.0001 µM
  increase in dead-cell fraction: -0.0027
THZ531; 0.0003162 µM
  increase in dead-cell fraction: -0.0002
THZ531; 0.001 µM
  increase in dead-cell fraction: 0.002
THZ531; 0.003162 µM
  increase in dead-cell fraction: -0.0005
THZ531; 0.01 µM
  increase in dead-cell fraction: -0.0004
THZ531; 0.03162 µM
  increase in dead-cell fraction: 0.0008
THZ531; 0.1 µM
  increase in dead-cell fraction: 0.0103
THZ531; 0.3162 µM
  increase in dead-cell fraction: 0.0403
THZ531; 1 µM
  increase in dead-cell fraction: 0.224
YKL-5-124; 0.001 µM
  increase in dead-cell fraction: 0.0171
YKL-5-124; 0.003162 µM
  increase in dead-cell fraction: 0.0093
YKL-5-124; 0.01 µM
  increase in dead-cell fraction: 0.016
YKL-5-124; 0.03162 µM
  increase in dead-cell fraction: 0.0176
YKL-5-124; 0.1 µM
  increase in dead-cell fraction: 0.0238
YKL-5-124; 0.3162 µM
  increase in dead-cell fraction: 0.0218
YKL-5-124; 1 µM
  increase in dead-cell fraction: 0.0259
YKL-5-124; 3.162 µM
  increase in dead-cell fraction: 0.0247
YKL-5-124; 10 µM
  increase in dead-cell fraction: 0.155
[7]; 0.0001 µM
  increase in dead-cell fraction: 0.0051
[7]; 0.0003162 µM
  increase in dead-cell fraction: -0.0006
[7]; 0.001 µM
  increase in dead-cell fraction: 0.0055
[7]; 0.003162 µM
  increase in dead-cell fraction: -0.0028
[7]; 0.01 µM
  increase in dead-cell fraction: 0.0529
[7]; 0.03162 µM
  increase in dead-cell fraction: 0.459
[7]; 0.1 µM
  increase in dead-cell fraction: 0.573
[7]; 0.3162 µM
  increase in dead-cell fraction: 0.582
[7]; 1 µM
  increase in dead-cell fraction: 0.618
THZ1; 0.0001 µM
  increase in dead-cell fraction: -0.0006
THZ1; 0.0003162 µM
  increase in dead-cell fraction: 0.0015
THZ1; 0.001 µM
  increase in dead-cell fraction: 0.0027
THZ1; 0.003162 µM
  increase in dead-cell fraction: 0.0007
THZ1; 0.01 µM
  increase in dead-cell fraction: -0.0012
THZ1; 0.03162 µM
  increase in dead-cell fraction: 0.0033
THZ1; 0.1 µM
  increase in dead-cell fraction: 0.0231
THZ1; 0.3162 µM
  increase in dead-cell fraction: 0.0712
THZ1; 1 µM
  increase in dead-cell fraction: 0.363
Flavopiridol; 0.0001 µM
  increase in dead-cell fraction: -0.0026
Flavopiridol; 0.0003162 µM
  increase in dead-cell fraction: -0.0012
Flavopiridol; 0.001 µM
  increase in dead-cell fraction: 0.002
Flavopiridol; 0.003162 µM
  increase in dead-cell fraction: 0.0006
Flavopiridol; 0.01 µM
  increase in dead-cell fraction: -0.0004
Flavopiridol; 0.03162 µM
  increase in dead-cell fraction: -0.0008
Flavopiridol; 0.1 µM
  increase in dead-cell fraction: 0.0005
Flavopiridol; 0.3162 µM
  increase in dead-cell fraction: 0.0405
Flavopiridol; 1 µM
  increase in dead-cell fraction: 0.485
